Results: BindingDB's records for doi:10.1007/bfb0000613 (German Institute of Human Nutrition, 1998)
Several values for one entry are separate records, joined by “and”; a condition that tells them apart may be missing. Equal values may be shown once. *1 amine or outer side, *2 acyl side, *3 side chain or, on linkers, in order; H or OH if unused. Where a SMILES comes first, the peptide text is derived from it. Bridges are numbered along the chain shown (N, C = ends). [ ]: non-standard residue; d: D form. ξ: configuration not given here. Phe(4-CH2NHiPr) = CC(C)NCc1ccc(C[C@H](N)C(=O)O)cc1; X2 = CC(C)NCc1ccc(C[C@@H](N[*:1])C(=O)[*:2])cc1; d1Nal = N[C@H](Cc1cccc2ccccc12)C(=O)O; Thr(3ξ) = CC(O)[C@H](N)C(=O)O; ξF = NC(Cc1ccccc1)C(=O)O; ξK = NCCCCC(N)C(=O)O; ξT = CC(O)C(N)C(=O)O; Ahp = NCCCCCCC(=O)O

Key:
[1] = molecular target: Somatostatin receptor type 3 (Rattus norvegicus, UniProt P30936)
[2] = molecular target: T1, Somatostatin receptor type 5 (Rattus norvegicus, UniProt P30938)
T1 sequence (P30938 whole entry): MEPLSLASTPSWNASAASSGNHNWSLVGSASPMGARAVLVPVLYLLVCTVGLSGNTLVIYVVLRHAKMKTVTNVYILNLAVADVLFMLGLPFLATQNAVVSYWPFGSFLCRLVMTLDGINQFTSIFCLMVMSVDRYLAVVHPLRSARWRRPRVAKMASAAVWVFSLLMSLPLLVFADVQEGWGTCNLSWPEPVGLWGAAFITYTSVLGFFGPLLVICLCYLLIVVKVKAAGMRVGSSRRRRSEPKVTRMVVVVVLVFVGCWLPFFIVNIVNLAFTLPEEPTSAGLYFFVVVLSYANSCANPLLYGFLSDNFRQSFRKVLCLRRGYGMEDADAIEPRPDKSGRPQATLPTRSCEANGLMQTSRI

[3] = molecular target: Somatostatin receptor type 5 (Homo sapiens, UniProt P35346)
[4] = molecular target: Somatostatin receptor type 1 (Homo sapiens, UniProt P30872)
[5] = molecular target: Somatostatin receptor type 2 (Mus musculus, UniProt P30875)
[6] = molecular target: Somatostatin receptor type 2 (Rattus norvegicus, UniProt P30680)
[7] = molecular target: Somatostatin receptor type 4 (Homo sapiens, UniProt P31391)
[8] = molecular target: Somatostatin receptor type 2 (Homo sapiens, UniProt P30874)
Somatostatin receptor type 2 (Homo sapiens, UniProt P30874), sequence (P30874 whole entry): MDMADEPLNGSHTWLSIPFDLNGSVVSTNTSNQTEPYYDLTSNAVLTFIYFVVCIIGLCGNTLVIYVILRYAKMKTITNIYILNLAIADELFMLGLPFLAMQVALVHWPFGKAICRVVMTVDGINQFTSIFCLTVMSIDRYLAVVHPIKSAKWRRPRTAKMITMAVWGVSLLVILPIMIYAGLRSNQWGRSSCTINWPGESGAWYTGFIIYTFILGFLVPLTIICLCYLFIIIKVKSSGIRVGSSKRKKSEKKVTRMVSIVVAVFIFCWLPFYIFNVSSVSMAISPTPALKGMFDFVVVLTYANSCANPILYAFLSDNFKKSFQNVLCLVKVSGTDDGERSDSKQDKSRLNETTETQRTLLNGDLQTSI

Somatostatin receptor type 5 (Homo sapiens, UniProt P35346), sequence (P35346 whole entry): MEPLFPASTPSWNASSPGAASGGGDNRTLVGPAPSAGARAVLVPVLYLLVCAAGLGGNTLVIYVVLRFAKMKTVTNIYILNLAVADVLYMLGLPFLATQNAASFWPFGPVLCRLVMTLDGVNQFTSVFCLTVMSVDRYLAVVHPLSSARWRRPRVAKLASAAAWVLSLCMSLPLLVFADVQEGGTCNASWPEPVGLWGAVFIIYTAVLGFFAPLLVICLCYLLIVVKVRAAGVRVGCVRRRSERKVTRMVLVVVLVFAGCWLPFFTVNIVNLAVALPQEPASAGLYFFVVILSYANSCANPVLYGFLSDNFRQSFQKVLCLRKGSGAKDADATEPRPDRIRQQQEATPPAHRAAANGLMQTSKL
Somatostatin receptor type 2 (Rattus norvegicus, UniProt P30680), sequence (P30680 whole entry): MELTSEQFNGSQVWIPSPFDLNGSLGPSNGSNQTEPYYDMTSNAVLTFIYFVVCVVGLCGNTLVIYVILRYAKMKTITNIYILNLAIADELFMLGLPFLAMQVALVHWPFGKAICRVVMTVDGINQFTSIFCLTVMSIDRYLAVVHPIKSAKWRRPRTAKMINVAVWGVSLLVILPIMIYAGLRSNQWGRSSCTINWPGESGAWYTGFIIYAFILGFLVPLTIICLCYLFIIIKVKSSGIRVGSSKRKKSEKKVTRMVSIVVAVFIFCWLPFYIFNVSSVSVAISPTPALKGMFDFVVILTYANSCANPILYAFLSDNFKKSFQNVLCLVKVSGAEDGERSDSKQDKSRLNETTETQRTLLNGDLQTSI
Somatostatin receptor type 2 (Mus musculus, UniProt P30875), sequence (P30875 whole entry): as the sequence (P30680 whole entry) above, with L3M, T4S, F8L, I15V, P16S, G168C, A335T counted along it
Somatostatin receptor type 3, sequence (P30936 whole entry): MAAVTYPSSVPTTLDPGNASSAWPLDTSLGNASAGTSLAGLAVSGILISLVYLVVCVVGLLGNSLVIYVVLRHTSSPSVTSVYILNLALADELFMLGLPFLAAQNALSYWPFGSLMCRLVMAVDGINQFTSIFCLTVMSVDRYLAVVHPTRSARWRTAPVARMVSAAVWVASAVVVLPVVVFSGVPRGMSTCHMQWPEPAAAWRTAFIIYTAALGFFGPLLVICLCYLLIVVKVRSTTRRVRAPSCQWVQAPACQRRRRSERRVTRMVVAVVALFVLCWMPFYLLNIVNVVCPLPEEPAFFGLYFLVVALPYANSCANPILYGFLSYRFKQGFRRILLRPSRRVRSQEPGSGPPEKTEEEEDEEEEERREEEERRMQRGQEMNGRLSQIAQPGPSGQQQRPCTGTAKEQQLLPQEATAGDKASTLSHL
Somatostatin receptor type 1, sequence (P30872 whole entry): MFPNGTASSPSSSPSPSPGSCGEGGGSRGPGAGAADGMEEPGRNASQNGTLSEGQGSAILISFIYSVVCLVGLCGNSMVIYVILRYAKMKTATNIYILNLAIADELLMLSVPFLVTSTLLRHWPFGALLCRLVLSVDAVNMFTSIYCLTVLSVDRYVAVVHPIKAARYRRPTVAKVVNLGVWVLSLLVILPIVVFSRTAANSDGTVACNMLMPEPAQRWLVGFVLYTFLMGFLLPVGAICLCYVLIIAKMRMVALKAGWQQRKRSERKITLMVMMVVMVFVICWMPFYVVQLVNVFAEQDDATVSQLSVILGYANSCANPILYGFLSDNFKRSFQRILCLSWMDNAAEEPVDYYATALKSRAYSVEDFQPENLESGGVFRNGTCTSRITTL
Somatostatin receptor type 4, sequence (P31391 whole entry): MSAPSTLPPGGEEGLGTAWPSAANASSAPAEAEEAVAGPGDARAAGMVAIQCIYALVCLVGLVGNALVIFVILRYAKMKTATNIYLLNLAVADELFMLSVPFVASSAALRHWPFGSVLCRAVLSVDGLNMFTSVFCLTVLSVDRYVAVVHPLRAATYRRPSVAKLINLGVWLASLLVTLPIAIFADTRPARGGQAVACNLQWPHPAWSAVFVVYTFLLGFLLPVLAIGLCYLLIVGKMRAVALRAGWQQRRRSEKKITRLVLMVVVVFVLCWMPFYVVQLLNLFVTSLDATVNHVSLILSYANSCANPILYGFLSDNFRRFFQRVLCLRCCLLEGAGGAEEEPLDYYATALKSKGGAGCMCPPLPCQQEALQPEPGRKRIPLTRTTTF

Row | Compound | Ki [1] | Ki [2] | Ki [3] | Ki [4] | Ki [5] | Ki [6] | Ki [7] | Ki [8]
1 | C[C@@H](O)[C@@H]1NC(=O)[C@H](CCCCN)NC(=O)[C@@H](Cc2c[nH]c3ccccc23)NC(=O)[C@H](Cc2ccccc2)NC(=O)[C@@H](NC(=O)[C@H](N)Cc2ccccc2)CSSC[C@@H](C(=O)N[C@H](CO)[C@@H](C)O)NC1=O | 14 nM |  |  |  |  |  |  | 
2 | CC(O)[C@H](CO)NC(=O)[C@@H]1CSSCC(NC(=O)C(N)Cc2ccccc2)C(=O)N[C@H](Cc2ccccc2)C(=O)N[C@H](Cc2c[nH]c3ccccc23)C(=O)N[C@H](CCCCN)C(=O)N[C@H](C(C)O)C(=O)N1 (some centres not stated) |  | 17 nM |  |  |  |  |  | 
3 | C[C@@H](O)[C@@H]1NC(=O)[C@H](CCCCN)NC(=O)[C@@H](Cc2c[nH]c3ccccc23)NC(=O)[C@H](Cc2ccccc2)NC(=O)[C@H](Cc2ccccc2)NC(=O)[C@H](N)CSSC[C@H](C(N)=O)NC(=O)[C@H](Cc2ccccc2)NC1=O | 4.1 nM |  | 2.18 nM | 582 nM | 1.49 nM and 11 nM | 101 nM |  | 
4 | CC(O)[C@H]1NC(=O)[C@H](CCCCN)NC(=O)[C@H](Cc2c[nH]c3ccccc23)NC(=O)[C@H](Cc2ccccc2)NC(=O)[C@@H](Cc2ccccc2)NC(=O)[C@H](N)CSSC[C@H](C(N)=O)NC(=O)[C@H](Cc2ccccc2)NC1=O (some centres not stated) |  | 3.4 nM |  |  |  |  |  | 
5 | CC(C)[C@@H]1NC(=O)[C@H](CCCCN)NC(=O)[C@@H](Cc2c[nH]c3ccccc23)NC(=O)[C@H](Cc2ccc(O)cc2)NC(=O)[C@@H](NC(=O)[C@H](N)Cc2ccc3ccccc3c2)CSSC[C@@H](C(=O)N[C@H](C(N)=O)[C@@H](C)O)NC1=O [3-(2-Naphtyl)-D-Ala-L-Cys(1)-L-Tyr-D-Trp-L-Lys-L-Val-L-Cys(1)-L-Thr-NH2] | 115 nM | 23 nM |  |  |  | 1.47 nM |  | 
6 | CC(C)[C@H](NC(=O)[C@H](CCCCN)NC(=O)[C@@H](Cc1c[nH]c2ccccc12)NC(=O)[C@H](Cc1ccc(O)cc1)NC(=O)[C@H](Cc1ccccc1)NC(=O)[C@@H](N)Cc1ccccc1)C(=O)N[C@@H](Cc1ccccc1)C(=O)N[C@H](Cc1cccc2ccccc12)C(N)=O [BIM 23056] (H-FFY[dW]KVF[d1Nal]-NH2) |  | 536 nM |  |  |  |  |  | 
7 | CC(C)[C@H](NC(=O)[C@H](CCCCN)NC(=O)[C@@H](Cc1c[nH]c2ccccc12)NC(=O)[C@H](Cc1ccc(O)cc1)NC(=O)[C@H](Cc1ccccc1)NC(=O)[C@H](N)Cc1ccccc1)C(=O)N[C@@H](Cc1ccccc1)C(=O)N[C@H](Cc1cccc2ccccc12)C(N)=O [BIM 23056] (H-[dF]FY[dW]KVF[d1Nal]-NH2) | 272 nM |  | 12 nM | 692 nM | 132 nM | 3400 nM | 174 nM | 
8 | CC(O)[C@@H](NC(=O)[C@H](CCCCN)NC(=O)[C@@H](Cc1c[nH]c2ccccc12)NC(=O)[C@H](Cc1ccc(O)cc1)NC(=O)C(Cc1ccccc1)NC(=O)C(N)CS)C(=O)NC(Cc1ccccc1)C(=O)NC(CS)C(N)=O (some centres not stated) [BIM 23295] | 5.7 nM | 0.65 nM | 0.34 nM | 86.8 nM |  | 57 nM | 3.36 nM | 
9 | CC(O)[C@@H](NC(=O)[C@H](CCCCN)NC(=O)[C@@H](Cc1c[nH]c2ccccc12)NC(=O)[C@H](Cc1ccccc1)NC(=O)C(Cc1ccccc1)NC(=O)C(N)CS)C(=O)NC(Cc1ccccc1)C(=O)NC(CS)C(N)=O (some centres not stated) [BIM 23313] | 11.2 nM | 9.88 nM | 0.27 nM | 151 nM |  | 45 nM | 55.3 nM | 
10 | CC(C)C1NC(=O)C(CCCCN)NC(=O)C(Cc2c[nH]c3ccccc23)NC(=O)C(Cc2ccc(O)cc2)NC(=O)C(NC(=O)C(N)Cc2ccccc2)CSSCC(C(=O)NC(Cc2c[nH]c3ccccc23)C(N)=O)NC1=O (configuration not stated) [CAS_71306] (H-FCYWKVCW-NH2; disulfide 2-7; configuration not given here) |  | 6.8 nM |  |  |  |  |  | 
11 | CC(C)[C@@H]1NC(=O)[C@H](CCCCN)NC(=O)[C@@H](Cc2c[nH]c3ccccc23)NC(=O)[C@H](Cc2ccc(O)cc2)NC(=O)[C@@H](NC(=O)[C@H](N)Cc2ccccc2)CSSC[C@@H](C(=O)N[C@@H](Cc2c[nH]c3ccccc23)C(N)=O)NC1=O [CAS_71306] (H-[dF]CY[dW]KVCW-NH2; disulfide 2-7) | 87 nM |  |  | 481 nM |  | 0.85 nM | 351 nM | 
12 | C[C@@H](O)[C@H](NC(=O)[C@H](Cc1ccccc1)NC(=O)[C@@H](NC(=O)[C@H](CCCCN)NC(=O)[C@@H](Cc1c[nH]c2ccccc12)NC(=O)[C@H](Cc1ccccc1)NC(=O)[C@H](Cc1ccccc1)NC(=O)[C@H](N)Cc1ccccc1)[C@@H](C)O)C(N)=O [CAS_133073-82-2] (H-[dF]FF[dW]KTFT-NH2) | 3.5 nM | 2.4 nM |  |  | 11.9 nM and 5.58 nM | 69 nM |  | 
13 | CC(C)C1NC(=O)C(CCCCN)NC(=O)C(Cc2c[nH]c3ccccc23)NC(=O)C(Cc2ccc(O)cc2)NC(=O)C(C)N(C)C(=O)C(Cc2ccccc2)NC1=O (configuration not stated) [CAS_3086456] |  | 72 nM |  |  |  |  |  | 
14 | CC(C)[C@@H]1NC(=O)[C@H](CCCCN)NC(=O)[C@@H](Cc2c[nH]c3ccccc23)NC(=O)[C@H](Cc2ccc(O)cc2)NC(=O)[C@H](C)N(C)C(=O)[C@H](Cc2ccccc2)NC1=O [CAS_3086456] | 45 nM |  | 15.5 nM |  |  | 0.48 nM |  | 
15 | CC(C)NCc1ccc(C[C@@H]2NC(=O)[C@@H](Cc3c[nH]c4ccccc34)NC(=O)[C@H](Cc3ccccc3)NC(=O)[C@H](Cc3ccccc3)NC(=O)[C@H](CCCCN)NC(=O)[C@@H](N)CSSC[C@@H](C(=O)O)NC(=O)[C@H](CO)NC(=O)[C@H]([C@@H](C)O)NC(=O)[C@H](Cc3ccccc3)NC(=O)[C@H]([C@@H](C)O)NC2=O)cc1 [CH-275] (H-CKFF[dW][Phe(4-CH2NHiPr)]TFTSC-OH; disulfide 1-11) |  |  |  | 1.8 nM and 4.9 nM | 1000 nM |  | 874 nM | 1000 nM
16 | CC(C)NCc1ccc(C[C@H]2NC(=O)[C@H](Cc3c[nH]c4ccccc34)NC(=O)C(Cc3ccccc3)NC(=O)C(Cc3ccccc3)NC(=O)C(CCCCN)NC(=O)[C@H](N)CSSC[C@H](C(=O)O)NC(=O)[C@@H](CO)NC(=O)[C@H](C(C)O)NC(=O)[C@@H](Cc3ccccc3)NC(=O)C(C(C)O)NC2=O)cc1 (some centres not stated) [CH-275] (H-[dC][ξK][ξF][ξF]W[X2][ξT][dF][Thr(3ξ)][dS][dC]-OH; disulfide 1-11) |  | 632 nM |  |  |  |  |  | 
17 | CC[C@@H]1NC(=O)[C@H](CCCCN)NC(=O)[C@@H](Cc2c[nH]c3ccccc23)NC(=O)[C@H](Cc2ccc(O)cc2)NC(=O)[C@@H](NC(=O)[C@H](N)Cc2ccccc2)CSSC[C@@H](C(=O)N[C@H](C(N)=O)[C@@H](C)O)NC1=O [D-Phe-L-Cys(1)-L-Tyr-D-Trp-L-Lys-L-Abu-L-Cys(1)-L-Thr-NH2] | 92 nM | 14 nM |  |  |  | 0.57 nM |  | 
18 | C[C@@H](O)[C@@H]1NC(=O)[C@H](CCCCN)NC(=O)[C@@H](Cc2c[nH]c3ccccc23)NC(=O)[C@H](Cc2c[nH]c3ccccc23)NC(=O)[C@H](Cc2ccccc2)NC(=O)CCCCCCNC(=O)[C@H](Cc2ccccc2)NC1=O [L-362855] (cyclo([Ahp]FW[dW]KTF)) | 33 nM | 51 nM | 0.76 nM |  |  | 12 nM | 467 nM | 
19 | CSCC[C@H](NC(=O)[C@H](C)NC(=O)[C@@H]1CCCN1C(=O)[C@H](CC(N)=O)NC(=O)[C@H](CO)NC(=O)[C@H](CC(N)=O)NC(=O)[C@H](C)NC(=O)[C@@H](N)CO)C(=O)N[C@@H](C)C(=O)N1CCC[C@H]1C(=O)N[C@@H](CCCNC(=N)N)C(=O)N[C@@H](CCC(=O)O)C(=O)N[C@@H](CCCNC(=N)N)C(=O)N[C@@H](CCCCN)C(=O)N[C@@H](C)C(=O)NCC(=O)N[C@H]1CSSC[C@@H](C(=O)O)NC(=O)[C@H](CO)NC(=O)[C@H]([C@@H](C)O)NC(=O)[C@H](Cc2ccccc2)NC(=O)[C@H]([C@@H](C)O)NC(=O)[C@H](CCCCN)NC(=O)[C@H](Cc2c[nH]c3ccccc23)NC(=O)[C@H](Cc2ccccc2)NC(=O)[C@H](Cc2ccccc2)NC(=O)[C@H](CC(N)=O)NC(=O)[C@H](CCCCN)NC1=O [L-Ser-L-Ala-L-Asn-L-Ser-L-Asn-L-Pro-L-Ala-L-Met-L-Ala-L-Pro-L-Arg-L-Glu-L-Arg-L-Lys-L-Ala-Gly-L-Cys(1)-L-Lys-L-Asn-L-Phe-L-Phe-L-Trp-L-Lys-L-Thr-L-Phe-L-Thr-L-Ser-L-Cys(1)-OH] | 0.81 nM |  |  |  |  |  |  | 
